Experimental data: US20250032530A1, “USE OF AURANOFIN AS AN INHIBITOR OF ATYPICAL PROTEIN KINASE C FOR TREATMENT OF NEURODEGENERATIVE DISORDERS” (UNIVERSITY OF SOUTH FLORIDA, priority 2021, published 2025)
Read-outs that look alike come from different tables or passages of the source.

Key:
NFκB = assay: Insulin-induced NFκB activity in LA1-5s neuronal cells; assay type: cell-based, human; conditions: 200 nM insulin, 24 hours; 1 μM ACPD, increasing concentrations of auranofin
Source text: (§1) Cell lysates were subjected to Western analyses for phosphorylated/activated forms of aPKC, NFκB and Akt. Representative blots of indicated proteins are shown in upper bands. […] Bargrams show Mean±SEM of 3-4 determinations. Asterisks indicate P<0.05; comparison of designated group versus the uninhibited, insulin-treated group (ANOVA).
(§2) LA1-5s neuronal cells were originally obtained from non-catecholamine-producing neuroblastoma of a person and are commercially available from the European Collection of Authenticated Cell Cultures. Incubation conditions were as described.
(§3) As described, western analyses were conducted with rabbit antisera, using: anti-aPKC [recognizes a C-terminal sequence in all aPKCs (Santa Cruz Biotechnologies, Santa Cruz, CA, USA)]; anti-phospho-threonine (thr)-560/555-PKC-ζ/λ/ι [recognizes a phosphopeptide sequence present in all aPKCs and indicates activation (Invitrogen, Carlsbad, CA, USA)]; anti-phospho-serine (ser)-473-Akt [recognizes a phosphopeptide sequence at 60 kDa present in all Akt's-1/2/3 and indicates activation (Cell Signaling Technologies, Danvers, MA, USA)]; anti-4 kDa-AP1-40/42 (Cell Signaling Technologies, Danvers, MA, USA); anti-mouse-70 kDa-BACE1 and anti-human-70 kDa-BACE1 (ThermoFisher); and anti-phospho-threonine (thr)-231-tau (Gene Tex, Irvine, CA, USA). […]

BACE1 [1] = assay: BACE1 levels in LA1-5s neuronal cells treated with insulin; assay type: cell-based, human; conditions: 200 nM insulin, 24 hours; increasing concentrations of ICAPP
Procedure: Values of BACE1 are Mean±SEM of 4 values. Asterisks indicate P<0.05 for comparison of designated group versus the untreated control group (ANOVA).
as §2
(§4) As described, western analyses were conducted with rabbit antisera, using: anti-aPKC [recognizes a C-terminal sequence in all aPKCs (Santa Cruz Biotechnologies, Santa Cruz, CA, USA)]; anti-phospho-threonine (thr)-560/555-PKC-ζ/λ/ι [recognizes a phosphopeptide sequence present in all aPKCs and indicates activation (Invitrogen, Carlsbad, CA, USA)]; anti-phospho-serine (ser)-473-Akt [recognizes a phosphopeptide sequence at 60 kDa present in all Akt's-1/2/3 and indicates activation (Cell Signaling Technologies, Danvers, MA, USA)]; anti-4 kDa-AP1-40/42 (Cell Signaling Technologies, Danvers, MA, USA); anti-mouse-70 kDa-BACE1 and anti-human-70 kDa-BACE1 (ThermoFisher); and anti-phospho-threonine (thr)-231-tau (Gene Tex, Irvine, CA, USA). Samples from all experimental groups within each study were compared on the same blots and routinely checked with loading controls. All comparisons in histograms were made relative to the mean value of the basal control group, i.e., wild-type mice consuming standard low-fat mouse chow, untreated with insulin or aPKC inhibitors, and having normal levels of aPKCs and other cellular proteins.

Akt = assay: Insulin-induced Akt activation in LA1-5s neuronal cells; assay type: cell-based, human; conditions: 200 nM insulin, 24 hours
Source text: as §1, §2, §3

sensitive cancer cells = conditions: read-out: cytotoxicity activity (IC50); cited from earlier work
[2] = tested on: non-sensitive cancer cells; conditions: read-out: cytotoxicity activity (IC50); cited from earlier work
CA-125 = conditions: oral administration, 10 patients; cited from earlier work
PKCι and PKCζ = conditions: cited from earlier work
[3] = PO; cited from earlier work
70 kDa PKC-λ/ι = molecular target: T1, 70 kDa PKC-λ/ι (Mus musculus, UniProt Q62074); assay: 70 kDa PKC-λ/ι activity (p-thr-555/560-aPKC, Western) in brain and liver of normal mice given ICAP nasally or IV; assay type: in vivo
T1 construct: from tissue; host or cells: mouse brain and liver
T1 sequence (Q62074 1-595): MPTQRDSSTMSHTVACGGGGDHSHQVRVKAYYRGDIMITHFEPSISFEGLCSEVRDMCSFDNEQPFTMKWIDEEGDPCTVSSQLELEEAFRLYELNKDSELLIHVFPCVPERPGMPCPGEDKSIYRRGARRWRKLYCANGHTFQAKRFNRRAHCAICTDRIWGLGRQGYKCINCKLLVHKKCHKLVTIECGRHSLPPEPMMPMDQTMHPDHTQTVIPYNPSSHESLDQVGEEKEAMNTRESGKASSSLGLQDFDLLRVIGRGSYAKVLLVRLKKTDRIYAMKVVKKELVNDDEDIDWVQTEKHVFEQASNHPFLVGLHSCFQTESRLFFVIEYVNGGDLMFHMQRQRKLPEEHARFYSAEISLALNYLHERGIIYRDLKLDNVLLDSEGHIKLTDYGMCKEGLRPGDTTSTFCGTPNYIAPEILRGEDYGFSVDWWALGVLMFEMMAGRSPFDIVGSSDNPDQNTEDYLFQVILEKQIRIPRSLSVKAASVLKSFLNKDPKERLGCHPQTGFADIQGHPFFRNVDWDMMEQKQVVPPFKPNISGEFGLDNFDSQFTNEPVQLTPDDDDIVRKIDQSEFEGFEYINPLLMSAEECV

50 kDa PKMζ = molecular target: T2, 50 kDa PKMζ (Mus musculus, UniProt Q02956); assay: 50 kDa PKMζ activity in brain of normal mice given nasal ICAP; assay type: in vivo; conditions: 100 mg/kg/day, 3 weeks
T2 construct: from tissue; host or cells: mouse brain
T2 sequence (Q02956 1-409 isoform Q02956-2): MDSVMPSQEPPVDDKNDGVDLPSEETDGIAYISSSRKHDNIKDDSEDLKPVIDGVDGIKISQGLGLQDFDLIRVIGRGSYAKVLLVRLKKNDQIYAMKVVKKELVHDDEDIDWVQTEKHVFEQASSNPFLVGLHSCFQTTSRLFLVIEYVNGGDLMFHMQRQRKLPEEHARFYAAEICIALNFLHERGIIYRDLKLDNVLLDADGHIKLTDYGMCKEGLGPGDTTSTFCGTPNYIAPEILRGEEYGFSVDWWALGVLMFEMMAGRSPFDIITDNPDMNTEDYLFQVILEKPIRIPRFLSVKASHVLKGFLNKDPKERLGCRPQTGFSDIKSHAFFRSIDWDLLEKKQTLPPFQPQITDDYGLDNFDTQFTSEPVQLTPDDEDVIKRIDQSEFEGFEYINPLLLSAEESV

BACE1 [4] = assay: BACE1 protein and mRNA levels in brain and liver of normal mice given ICAP nasally or IV; assay type: in vivo, mouse
Procedure: Values are mean±SEM of 6 mice/group. P values, (ANOVA).
Values are mean±SEM of 6 mice/group.
As described, samples from mouse brains that were flash-frozen in liquid N2 and stored at −80° C. were homogenized in buffer containing 0.25M sucrose, 20 mM Tris/HCl (pH, 7.5), 2 mM EGTA, 2 mM EDTA, 1 mM phenyl-methyl-sulfonyl-fluoride, 20 μg/ml leupeptin, 10 μg/ml aprotinin, 2 mM Na4P2O7, 2 mM Na3VO4, 2 mM NaF, and 1 μM microcystin, and then supplemented with 1% TritonX-100, 0.6% Nonidet and 150 mM NaCl.
as §4

[5] = tested on: Aβ-peptides and Aβ-plaque; assay: AD pathology (Aβ-peptides by ELISA, Aβ-plaque load) in transgenic APP/PS1 AD mice given ICAP; assay type: in vivo, mouse
Tg APP/PS1 AD mice = assay: Memory tests (Novel Object Recognition, RAWM) in transgenic APP/PS1 AD mice given oral ICAP; assay type: in vivo, mouse; conditions: PO 100 mg/kg/day × 3 months
Procedure: Radial Arm Water Maze (RAWM) assesses learning and spatial memory and requires hippocampal and frontal cortical areas. The maze consisted of a circular pool filled with opaque water, with 6 arms radiating from a central area. On each training day, mice were released to swim and find a submerged escape platform at the end of a goal arm, utilizing extra-maze cues to form a spatial representation. On each day, there were 4 consecutive acquisition trials of no more than 1 minute each. […] If the animal made an error, it was returned to the start arm in a restart procedure. After the last acquisition trial, the animal was dried and returned to its home cage for 30 min and then given a single retention trial from the same start arm to measure short-term spatial memory.

[6] = tested on: BACE1 and CKs (TNF-α, IL-1β, IL-6); assay: BACE1 and proinflammatory cytokine levels in APP/PS1 AD mice given oral ICAP; assay type: in vivo, mouse
Source text: Values are Mean±SEM of results in 10 mice.
As alluded to, resting PKC-λ/ι activity was increased by approx. 40% in brains of Tg APP/PS1 AD mice, relative to normal WT mice (FIG. 17).

[7] = Distribution and passage of the blood brain barrier; assay type: in vivo; conditions: published and prelim PK/PD studies
Procedure: aPKC Inhibitors. We identified by HTS compounds that target the substrate-binding site of aPKCs and potently (IC50s10-30 nM) inhibit recombinant PIP3-dependent aPKCs, but not DAG-dependent PKCs. Three compounds have been studied in detail: (a) 1H-imidazole-4-carboxamide, 5-amino-1-[2,3-dihydroxy-4-[(phosphono-oxy)methyl]cyclopentyl-[1R-(1a,2b,3b,4a)] […] Thus, these agents can reduce brain aPKC activity, indirectly at lower doses by inhibiting liver aPKC and correcting hyperinsulinemia in insulin-resistant states, and, at higher doses, by acting directly on brain PKC-λ/ι.

[8] = tested on: aPKC, Akt2, AMP-activated kinase (AMPK), FoxO1; conditions: isolated human hepatocytes; cited from earlier work
aPKC = conditions: cited from earlier work
[9] = IV and PO, 200 mg/kg body weight; cited from earlier work
PKC-λ/ι = molecular target: T3, PKC-λ/ι (Mus musculus, UniProt Q62074); conditions: cited from earlier work
T3 sequence (Q62074 1-595): T1 sequence (Q62074 1-595)

[10] = nasal, 100 mg/kg/day, 3 weeks, brain
[11] = mouse, in vivo, po, 100 mg/kg/day
[12] = PO 100 mg/kg/day × 3 months, brain

CC(=O)OC[C@H]1O[C@@H]([S-])[C@H](OC(C)=O)[C@@H](OC(C)=O)[C@@H]1OC(C)=O.CCP(CC)CC.[Au+] [auranofin, 1-thio-β-D-glucopyranosatotriethylphosphine gold-2,3,4,6-tetraacetate]
insulin-induced increase in NFκB activity (NFκB): diminished | insulin-induced increase in BACE1 levels (BACE1 [1]): diminished | insulin-induced Akt activation (Akt): not Akt activation | IC50 (sensitive cancer cells): ≤ 10 µM | IC50 [2]: > 40 µM | levels of CA-125 (CA-125): decreased levels of CA-125 in one patient | inhibition of PKCι and PKCζ signaling by targeting the PB1 domain (PKCι and PKCζ): inhibits PKCι and PKCζ signaling | insulin activation of aPKC (PB1 site) (PKCι and PKCζ): inhibit insulin activation of aPKC | passage of the BBB [3]: known to cross the BBB

NC(=O)c1ncn(C2CC(CO)C(O)C2O)c1N (centres unmarked) [ICAP]
decrease of brain PKC-λ/ι (aPKC) activity (70 kDa PKC-λ/ι; IV, 100 mg/kg/day × 7 days, normal mice, brain): 50-60% | inhibition of PKC-λ versus PKMζ (70 kDa PKC-λ/ι; mouse brain): inhibits PKC-λ, but not PKMζ | inhibition of brain 70 kDa PKC-λ/ι (aPKC) activity (70 kDa PKC-λ/ι; nasal, 100 mg/kg/day, 3 weeks, normal mice, brain): 70-80% | brain 50 kDa PKMζ activity (50 kDa PKMζ): not altered | decrease of brain BACE1 levels (BACE1 [4]; IV, 100 mg/kg/day × 7 days, brain): 50-60% | decrease of liver BACE1 levels (BACE1 [4]; IV, 100 mg/kg/day × 7 days, liver): approximately 90% | decrease of brain BACE1 mRNA levels (BACE1 [4]; [10]): approximately 50% | decrease of brain BACE1 protein levels (BACE1 [4]; [10]): approximately 50% | reduction of Aβ-plaque load ([5]; PO 100 mg/kg/day × 3 months, APP/PS1 AD mice): approx. 70% | Aβ40 levels [5, 11]: reduced | Aβ42 levels [5, 11]: reduced | AD pathological and functional aberrations ([5]; nasal ICAP, APP/PS1 AD mice, not shown): corrected AD pathological and functional aberrations | memory function, Novel Object Recognition (NOR) test (Tg APP/PS1 AD mice): restored memory functions | memory function, RAWM test (Tg APP/PS1 AD mice; not shown): restored memory functions | liver BACE1 levels ([6]; PO 100 mg/kg-bw daily, liver): diminished | brain levels of BACE1 [6, 12]: diminished | brain levels of CKs (TNF-α, IL-1β, IL-6) [6, 12]: diminished | passage of the BBB [7]: clearly passes the BBB and enters the brain | tissue distribution [7]: preferentially distributes to liver | FoxO1 phosphorylation/inactivation [8]: increase FoxO1 phosphorylation/inactivation | inhibition of aPKC, Akt2, AMPK [8]: inhibit aPKC but not Akt2 or AMP-activated kinase (AMPK) | inhibition of brain aPKC (aPKC; at higher doses): inhibit brain aPKC | effectiveness in brain (aPKC; given per os (PO), nasally, SC): effective in brain | aPKC inhibition in liver, muscle, adipose tissue (aPKC; intact mice, employed doses): inhibit aPKC in liver, but not in muscle or adipose tissue | ICAP uptake over 24 hours, liver versus brain [9]: substantially greater in liver than in brain | effect on LTP and LTM (PKC-λ/ι): lack of effect
